Results taken from the NIST ThermoML archive (doi:10.1021/je0501078).

Experiments:
[1] = Crystal
[2] = Molar enthalpy of transition or fusion; conditions: Crystal
[3] = molar heat capacity at saturation pressure

O=C1CCCCC1C1(O)CCCCC1 (stereo unspecified) [1'-hydroxy-[1,1'-bicyclohexyl]-2-one]
Conditions	mass density [kg/m3]
[1], 292 K, 101.33 kPa, Pycnometric method	1140

Conditions	Molar enthalpy of transition or fusion, [2] [kcal/mol]	Triple point temperature, [1] [K]
Adiabatic calorimetry	4.974	306.75
DSC	4.95	306.9

[3]
Conditions	molar heat capacity [J/K/mol]
5.16 K, Crystal	0.533
5.41 K, Crystal	0.6159
5.68 K, Crystal	0.7141
5.97 K, Crystal	0.8182
6.29 K, Crystal	0.9686
6.62 K, Crystal	1.137
6.94 K, Crystal	1.337
7.27 K, Crystal	1.564
7.69 K, Crystal	1.849
8.09 K, Crystal	2.166
8.51 K, Crystal	2.524
8.97 K, Crystal	2.903
9.4 K, Crystal	3.307
9.86 K, Crystal	3.764
10.32 K, Crystal	4.247
10.8 K, Crystal	4.745
11.34 K, Crystal	5.386
11.91 K, Crystal	6.078
12.5 K, Crystal	6.783
13.09 K, Crystal	7.518
13.65 K, Crystal	8.27
14.26 K, Crystal	9.088
14.87 K, Crystal	9.894
15.47 K, Crystal	10.71
16.12 K, Crystal	11.66
16.79 K, Crystal	12.66
17.47 K, Crystal	13.66
18.17 K, Crystal	14.72
18.86 K, Crystal	15.8
19.61 K, Crystal	16.87
20.52 K, Crystal	18.24
21.52 K, Crystal	19.81
22.54 K, Crystal	21.36
23.56 K, Crystal	22.97
24.68 K, Crystal	24.67
25.89 K, Crystal	26.58
27.12 K, Crystal	28.34
28.37 K, Crystal	30.15
29.78 K, Crystal	32.21
31.31 K, Crystal	34.26
32.81 K, Crystal	36.25
34.25 K, Crystal	38.29
35.69 K, Crystal	40.02
37.25 K, Crystal	42.05
38.95 K, Crystal	44.28
40.79 K, Crystal	46.36
42.67 K, Crystal	48.72
44.41 K, Crystal	50.59
46.25 K, Crystal	52.77
48.19 K, Crystal	54.67
50.08 K, Crystal	56.63
51.93 K, Crystal	58.46
53.83 K, Crystal	60.66
55.82 K, Crystal	62.66
57.81 K, Crystal	64.39
59.76 K, Crystal	66.21
61.73 K, Crystal	68.03
63.72 K, Crystal	69.96
65.71 K, Crystal	71.5
67.67 K, Crystal	73.51
69.76 K, Crystal	75.35
72.08 K, Crystal	77.34
74.55 K, Crystal	79.53
76.99 K, Crystal	81.52
79.43 K, Crystal	83.56
81.9 K, Crystal	85.64
84.37 K, Crystal	87.8
86.86 K, Crystal	89.8
89.34 K, Crystal	92.04
91.79 K, Crystal	93.87
94.27 K, Crystal	96.03
96.74 K, Crystal	97.94
99.23 K, Crystal	100.3
99.86 K, Crystal	100.6
101.72 K, Crystal	102.1
101.89 K, Crystal	102.2
103.96 K, Crystal	103.9
104.22 K, Crystal	104.1
106 K, Crystal	105.5
108.09 K, Crystal	107.2
110.22 K, Crystal	108.8
112.32 K, Crystal	110.3
114.47 K, Crystal	112.2
116.67 K, Crystal	113.7
118.84 K, Crystal	115.6
120.97 K, Crystal	117
123.07 K, Crystal	118.7
125.14 K, Crystal	120.4
127.19 K, Crystal	122.1
129.21 K, Crystal	123.6
131.21 K, Crystal	125.2
133.17 K, Crystal	126.7
135.12 K, Crystal	128.2
137.05 K, Crystal	129.6
138.96 K, Crystal	131.3
141 K, Crystal	132.8
143.17 K, Crystal	134.4
145.31 K, Crystal	136.2
147.42 K, Crystal	137.7
149.52 K, Crystal	139.4
149.69 K, Crystal	139.5
151.77 K, Crystal	141.3
153.83 K, Crystal	142.8
155.94 K, Crystal	144.7
158.11 K, Crystal	146.2
160.26 K, Crystal	148.1
162.4 K, Crystal	149.6
164.58 K, Crystal	151.5
166.82 K, Crystal	153.1
169.05 K, Crystal	154.8
171.25 K, Crystal	156.7
173.43 K, Crystal	158.6
175.59 K, Crystal	160.1
177.74 K, Crystal	162
179.87 K, Crystal	163.8
181.98 K, Crystal	165.4
184.22 K, Crystal	167.4
186.58 K, Crystal	169.1
188.92 K, Crystal	171.2
191.24 K, Crystal	172.9
193.62 K, Crystal	174.9
196.06 K, Crystal	176.6
198.49 K, Crystal	179
200.89 K, Crystal	180.8
203.28 K, Crystal	182.7
205.65 K, Crystal	184.8
208.08 K, Crystal	186.7
210.57 K, Crystal	188.6
213.04 K, Crystal	191
215.63 K, Crystal	192.9
218.36 K, Crystal	195.1
220.54 K, Crystal	197.1
223.28 K, Crystal	199.4
226 K, Crystal	201.5
228.71 K, Crystal	203.8
231.37 K, Crystal	206.2
234.03 K, Crystal	209.2
236.67 K, Crystal	210.8
239.45 K, Crystal	214
242.37 K, Crystal	216.3
245.3 K, Crystal	218.9
248.2 K, Crystal	221.7
251.09 K, Crystal	224
253.97 K, Crystal	227.2
256.81 K, Crystal	229.6
259.61 K, Crystal	232.7
262.37 K, Crystal	235.2
265.1 K, Crystal	238.8
267.8 K, Crystal	241.5
270.46 K, Crystal	244.1
273.22 K, Crystal	247.9
274.83 K, Crystal	249.2
276.1 K, Crystal	250.8
277.41 K, Crystal	252.4
278.95 K, Crystal	254.3
279.97 K, Crystal	255.8
281.77 K, Crystal	257.8
282.51 K, Crystal	258.4
284.57 K, Crystal	261.4
285.02 K, Crystal	262
287.35 K, Crystal	264.2
287.51 K, Crystal	264.9
289.97 K, Crystal	267.6
290.11 K, Crystal	268.6
292.4 K, Crystal	271.5
292.83 K, Crystal	271.4
294.18 K, Crystal	273.5
295.66 K, Crystal	275.3
308.34 K, Liquid	351
310.04 K, Liquid	351.5
311.73 K, Liquid	353.4
